We go through 1 molecule from patent US20060094676A1, “Compositions and methods for treating cancer using compositions comprising an inhibitor of endothelin receptor activity” (priority 2004, published 2006).

In assay [1] the test system is VEGF. Briefly: Real-time RT-PCR of VEGF transcripts. In kind it is cell-based, human. Conditions: BQ788 3 days. The method, then: Equal amounts of RNA from cells that were treated with BQ788 for 3 days were subjected to real-time RT-PCR analysis for the detection VEGF (A), HIF-1α (B) and Gravin (C) transcripts. Differences in expression levels are shown as x fold change and are statistically significant (p<0.05) unless a column in marked as non significant (N.S.). Sections of two representative tumors derived from a human melanoma cell line grown in nude mice and injected either with vehicle (D) or BQ788 (E) were stained with anti CD-31 to highlight blood vessels (brown staining, Lahav et al, 1999).
RNA was prepared from the different cell lines in different culture conditions using SV total RNA isolation kit (Promega) according to the manufacturer's protocol. For each sample RNA concentration was determined using the total RNA nano procedure of an Agilent bioanalyzer. A stock of SK-MEL-28 RNA aliquots was prepared containing 10, 20, 50, 100, 200, 500 and 1000 ng/12 μl for use as a standard curve and kept in −80° C. For the experimental unknown samples, a stock of 100 ng/12 μl RNA aliquots from each cell line and condition was prepared and stored at −80° C. For each real-time experiment one series of standard curve and unknown experimental series of aliquots was put on ice for use. Complementary DNA was prepared by adding to each tube 0.5 μl of random hexamers (Promega) and 1 μl of 10 mM dNTP mix (Promega) and incubating at 65° C. for 5 min. 4 μl of 5× M-MLV buffer (Promega), 1 μl of the RNase inhibitor RNasin (Promega) and 1 μl of M-MLV RT RNase H (Promega) were then added and the solution was incubated at 42° C. for 50 min followed by 15 min at 70° C. For real time reactions 15 μl of each cDNA sample were transferred to 3 wells in a 386 well plate. To each well we added 10 μl of TaqMan universal PCR master mix (Applied Biosystems), 1 μl of primers+probe mix (Assays-on-Demand from Applied Biosystems: EDNRB Hs00240747, BCL-2A1 Hs00187845, PARP-3 Hs00154151, VEGF Hs00173626, HIF-1α Hs00153153 and Gravin Hs00374507) and 4 μl of nuclease free water (Promega). Wells containing water instead of cDNA served as negative controls. The samples were subjected to 40 cycles of 15 sec at 95° C. and 1 min at 60° C. A standard curve of Ct versus RNA quantity was established and accordingly the Ct in the unknown samples was correlated to quantity of transcript.
Real-time PCR analysis confirmed that VEGF expression levels increased 18-fold in BQ788 treated LN-met cells and 65-fold in SK-MEL-28 cells, compared to only 2-fold in primary melanoma, and no change in the Cut-met line (FIG. 5). The changes in VEGF expression levels can be explained, at least in part, by changes in the expression levels of its known regulator hypoxia inducible factor-1 oc (HIF-1α) (Maxwell, et al., Oxygen sensors and angiogenesis, Semin. Cell Dev. Biol., 13:29-37 (2002)). […]
For orientation: Real-time PCR tracks product formation cycle by cycle.

Assay [2] concerns tumors derived from a human melanoma cell line grown in nude mice. As to conditions: cited from earlier work.

As for `CCCC[C@@H](NC(=O)[C@@H](Cc1cn(C(=O)OC)c2ccccc12)NC(=O)[C@H](CC(C)(C)C)NC(=O)N1[C@H](C)CCC[C@@H]1C)C(=O)O` [BQ788, N-cis-2,6-dimethylpiperidinocarbonyl-L-γ-methylleucyl-D-1-methoxycarbonyltrptophanyl-D-norleucine], in assay [1] (Cut-met line), the “VEGF expression level change” value is listed as “no change”. Further, the figures for the “increase in VEGF expression levels” value in assay [1] (LN-met cells), in assay [1] (SK-MEL-28 cells) and in assay [1] (primary melanoma) were 18 fold, 65 fold and 2 fold, respectively. The tumor growth entry in assay [2] (human melanoma tumors in nude mice injected with BQ788) was “inhibition of growth”. For the same molecule, the tumor size entry in assay [2] (tumors treated systemically, nude mice) is given as “shrinkage of tumors”.
